Data on nine molecules can be found in patent US8980932B2, “Cancer targeting using carbonic anhydrase isoform IX inhibitors” (Stichting Maastricht Radiation Oncology “Maastro-Clinic”, priority 2010, dated 2015).

For series [1], the target named is hCA IX (Homo sapiens (Human), UniProt Q16790). The series can be described thus: CA-catalyzed CO2 hydration stopped-flow inhibition assay, hCA IX.
Description: The uncatalyzed rates were determined in the same manner and subtracted from the total observed rates. Stock solutions of inhibitor (1 mM) were prepared in distilled-deionized water with 10-20% (v/v) DMSO (which is not inhibitory at these concentrations) and dilutions up to 0.1 nM were done thereafter with distilled-deionized water. Inhibitor and enzyme solutions were preincubated together for 15 min at room temperature prior to assay, in order to allow for the formation of CA IX-inhibitor complex. The inhibition constants were obtained by non-linear last-squares methods using PRISM 3 and represent the mean from at least three different determinations.
In series [2] the test system is cervical (HeLa) carcinoma cell line. The series can be described thus: Extracellular acidification (delta pH of medium) in HeLa cells. In kind it is cell-based, human. As for the experimental part: (§1) The experiment was set up as previously described (Dubois et al, 2007). A colorectal (HT-29) (FIG. 5a) and a cervical (HeLa) (FIG. 5b) carcinoma cell line were tested in normoxic (ambient oxygen concentration) and hypoxic (0.2% oxygen) conditions. HT-29 cells are known to be constitutive hypoxia inducible CA IX (CA IX expression under normoxia and increased CA IX expression upon hypoxia) expressing cells. Therefore, compounds were added after 1 h of hypoxic exposure (to ensure active CA IX) and incubation was done for another 23 h (total of 24 h hypoxia). HeLa cells are hypoxia inducible (at lower density) CA IX expressing cells. Therefore, HeLa were first incubated for 24 h hypoxia to ensure CA IX expression in the first place (time point assessed in time series experiments). Afterwards, compounds were added and cells were incubated for another 24 h.
(§2) Experiments were performed in triplicate for each condition. The described conditions were done both for HT-29 and HeLa under normoxic and hypoxic conditions.
(§3) Following conditions were assessed: • Blank 1 mM or 0.1 mM (no addition of compound, only DMSO/PBS) • DH307 1 mM or 0.1 mM • DH310 1 mM or 0.1 mM • DH338 1 mM or 0.1 mM • DH348 1 mM or 0.1 mM • S=AEBS (4-(2-aminoethylbenzenesulfonamide); Sigma) 1 mM or 0.1 mM (known to reduce extracellular pH as described by (Svastova et al, 2004))
(§4) Cells were seeded in 6 cm dishes (HT-29: 10e6; HeLa: 4×10^5: to compensate for cell size) in 5 ml of DMEM supplemented with 10% FCS. The day after, medium was replaced by 3.6 ml of freshly prepared DMEM/FCS 10%, from which the pH was measured=pH at incubation), after which dishes were placed in the hypoxic chamber (normoxic dishes remained at ambient air in the incubator: 37° C., 95% humidity, 5% CO2). Compounds were added (1 h for HT-29 or 24 h for HeLa after start hypoxic exposure) to have a final concentration of 1 mM or 0.1 mM, by adding 400 μl to the dishes, starting from a 10 or 1 mM stock (DMSO final concentration 0.1%). Blanc controls received DMSO/PBS without compound. pH of the medium was measured after 24 h (HT-29) or 48 h (HeLa) inside the hypoxic chamber after calibration of the electrode to reduced oxygen concentrations. Delta pH (pH at end hypoxic exposure−pH of replacement medium before incubation) were calculated and shown in the graph of FIGS. 5a and 5b.

Series [3] relates to colorectal (HT-29) carcinoma cell line. Description: Extracellular acidification (delta pH of medium) in HT-29 cells. In kind it is cell-based. The following applies: for reduction of extracellular acidification: HT-29, hypoxia (0.2% oxygen). As for the experimental part: as §1, §2, §3, §4
The mark [4] stands for this setting: read-out: KI hCA IX, stopped-flow CO2 hydration, pH 7.5, 15 min preincubation.

Like-named read-outs stand apart in the source and are kept apart here.

Take `NS(=O)(=O)c1ccc(NC(=O)Cn2ccnc2[N+](=O)[O-])cc1` [Compound 4a, 2-(2-nitro-imidazol-1-yl)-N-(4-sulfamoylphenyl)acetamide]: the melting point (in general, the temperature of the solid-liquid transition) fell in the range of 163 to 165 °C. In series [1] (setting [4]), the Ki (in general, the equilibrium dissociation constant of an inhibitor or competing ligand from its target) turned out to be 70 nM.

For `NS(=O)(=O)c1cccc(NC(=O)Cn2ccnc2[N+](=O)[O-])c1` [Compound 4b, 2-(2-nitro-imidazol-1-yl)-N-(3-sulfamoylphenyl)acetamide], the melting point is 195 to 197 °C.

For the molecule `NS(=O)(=O)c1ccc(CCNC(=O)Cn2ccnc2[N+](=O)[O-])cc1` [Compound 4d, 2-(2-nitro-imidazol-1-yl)-N-[2-(4-sulfamoylphenyl)ethyl]acetamide], the melting point lay within 139 to 141 °C. In series [1], this molecule gave a Ki of 7.3 nM.

As to `Cc1ncc([N+](=O)[O-])n1CCNC(=S)Nc1ccc(S(N)(=O)=O)cc1` [Compound 6a, N-(4-sulfamoylphenyl)-N-((2-aminoethyl)-2-methyl-5-nitroimidazolyl)thiourea], the Ki in series [1] (setting [4]) was 7.3 nM.

As to `Cc1ncc([N+](=O)[O-])n1CCNC(=S)NCc1ccc(S(N)(=O)=O)cc1` [Compound 6c, N-(4-sulfamoylbenzyl)-N-((2-aminoethyl)-2-methyl-5-nitroimidazolyl)thiourea], the “reduction of extracellular acidification” value in series [2] (hypoxia (0.2% oxygen), 0.1 mM) is on record as “strong reduction”; in series [2] (hypoxia (0.2% oxygen), 1 mM), “made the medium alkaline”. Also, in series [1] (setting [4]), the inhibition constant Ki stood at 8.3 nM.

`Cc1ncc([N+](=O)[O-])n1CCNC(=S)NCCc1ccc(S(N)(=O)=O)cc1` [Compound 6d, N-(4-sulfamoylphenylethyl)-N-((2-aminoethyl)-2-methyl-5-nitroimidazolyl)thiourea]: the Ki in series [1] (setting [4]) is 7.8 nM.

As to `Cc1ncc([N+](=O)[O-])n1CCNS(N)(=O)=O` [Compound 7, N-[2-(2-methyl-5-nitro-imidazol-1-yl)ethyl]sulfamide], the melting point stood at 122 °C. The “reduction of extracellular acidification” value in series [2] (hypoxia, concentration not specified) was “best results”. Besides, the “reduction of extracellular acidification” value in series [3] (0.1 mM) is “additional reduction compared with the other compounds”. Besides, in series [3] (1 mM), the “reduction of extracellular acidification” value is reported as “best results”.

On to `NCCc1ccc(S(N)(=O)=O)cc1` [S, 4-(2-aminoethylbenzenesulfonamide), reference compound], for which the “reduction of extracellular acidification” value is recorded as “less” in series [2] (hypoxia (0.2% oxygen), 0.1 mM); “effectively reduced the extracellular acidification” in series [2] (hypoxia (0.2% oxygen), 1 mM); “less” in series [3] (0.1 mM); “effectively reduced the extracellular acidification” in series [3] (1 mM). The “effect on extracellular acidification upon normoxic exposure” value in series [2] (normoxia) was “No effect”; in series [3] (HT-29, normoxia), “No effect”.

For “N-[2-(2-methyl-5-nitro-imidazol-1-yl)ethyl]sulfamate [Compound 9]”, the “reduction of extracellular acidification” value in series [3] (1 mM) was “best results”.
